The assay deals with RAC-alpha serine/threonine-protein kinase (Homo sapiens, UniProt P31749). The experiment in a line: Inhibition of pAkt.

Among the data in BindingDB's records for doi:10.1016/j.bmcl.2007.02.075 (Bayer Research Center, 2007) are IC50 values, retold here.

By IC50 is commonly meant the midpoint of a concentration-inhibition curve. A low value points to greater potency.

Sequence of RAC-alpha serine/threonine-protein kinase (P31749 whole entry): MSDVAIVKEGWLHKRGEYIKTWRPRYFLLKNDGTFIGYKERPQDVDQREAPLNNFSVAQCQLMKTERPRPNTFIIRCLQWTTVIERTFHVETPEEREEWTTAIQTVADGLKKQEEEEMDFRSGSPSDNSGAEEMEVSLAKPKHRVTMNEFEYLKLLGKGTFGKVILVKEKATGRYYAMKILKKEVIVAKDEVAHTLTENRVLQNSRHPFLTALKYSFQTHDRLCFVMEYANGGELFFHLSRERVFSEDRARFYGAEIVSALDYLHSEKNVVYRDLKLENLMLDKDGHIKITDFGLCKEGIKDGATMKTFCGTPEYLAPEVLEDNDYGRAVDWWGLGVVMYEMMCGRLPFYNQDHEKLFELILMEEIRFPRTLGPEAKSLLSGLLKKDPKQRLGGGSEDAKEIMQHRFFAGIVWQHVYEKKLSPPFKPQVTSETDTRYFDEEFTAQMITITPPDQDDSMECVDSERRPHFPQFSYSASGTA

With `CCNC(=O)Nc1ccc(CNc2ncsc2C(=O)Nc2ccc3c(c2)OC(F)(F)O3)cn1` [1-(5-((5-((2,2-difluorobenzo[d][1,3]dioxol-5-yl)carbamoyl)thiazol-4-ylamino)methyl)pyridin-2-yl)-3-ethylurea], the IC50 was determined as 81 nM.

On to `CNC(=O)Nc1ccc(CNc2ncsc2C(=O)Nc2ccc3c(c2)OC(F)(F)O3)cn1` [1-(5-((5-((2,2-difluorobenzo[d][1,3]dioxol-5-yl)carbamoyl)thiazol-4-ylamino)methyl)pyridin-2-yl)-3-methylurea], for which the IC50 is 24 nM.

The molecule `CNC(=O)Nc1ccc(CNc2c(C(=O)Nc3ccc(SC(F)(F)F)cc3)cnn2C)cn1` [1-methyl-3-(5-((1-methyl-4-((4-(trifluoromethylthio)phenyl)carbamoyl)-1H-pyrazol-5-ylamino)methyl)pyridin-2-yl)urea] returned an IC50 of 15 nM.
